Results as given in PubChem BioAssay (NCI).
Values joined by “and” are separate entries in the source; they are usually repeats but may differ in a detail not shown here. Identical values can stand only once.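 Test compounds were applied to cells in 96-well plates for 48 hours at 5 doses. GI50 marks 50% less growth. TGI marks complete inhibition of growth.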

Tests used:
Assay in all cases: NCI tumour cell line growth inhibition, 48 h
786-0 renal = tested on: 786-0 renal
A498 renal = tested on: A498 renal
A549 NSCLC = tested on: A549 NSCLC
ACHN renal = tested on: ACHN renal
BT-549 breast = tested on: BT-549 breast
CAKI-1 renal = tested on: CAKI-1 renal
CCRF-CEM leukemia = tested on: CCRF-CEM leukemia
COLO 205 colon = tested on: COLO 205 colon
EKVX NSCLC = tested on: EKVX NSCLC
HCC-2998 colon = tested on: HCC-2998 colon
HCT-116 colon = tested on: HCT-116 colon
HCT-15 colon = tested on: HCT-15 colon
HL-60(TB) leukemia = tested on: HL-60(TB) leukemia
HOP-62 NSCLC = tested on: HOP-62 NSCLC
HS 578T breast = tested on: HS 578T breast
HT29 colon = tested on: HT29 colon
IGROV1 ovarian = tested on: IGROV1 ovarian
KM12 colon = tested on: KM12 colon
LOX IMVI melanoma = tested on: LOX IMVI melanoma
M14 melanoma = tested on: M14 melanoma
MCF7 breast = tested on: MCF7 breast
MDA-MB-231 breast = tested on: MDA-MB-231 breast
MDA-MB-435 = tested on: MDA-MB-435
MDA-N = tested on: MDA-N
MOLT-4 leukemia = tested on: MOLT-4 leukemia
NCI-H23 lung = tested on: NCI-H23 lung
NCI-H460 lung = tested on: NCI-H460 lung
NCI-H522 lung = tested on: NCI-H522 lung
NCI/ADR-RES ovarian = tested on: NCI/ADR-RES ovarian
OVCAR-3 ovarian = tested on: OVCAR-3 ovarian
OVCAR-4 ovarian = tested on: OVCAR-4 ovarian
OVCAR-5 ovarian = tested on: OVCAR-5 ovarian
OVCAR-8 ovarian = tested on: OVCAR-8 ovarian
PC-3 prostate = tested on: PC-3 prostate
RPMI-8226 leukemia = tested on: RPMI-8226 leukemia
RXF 393 renal = tested on: RXF 393 renal
SF-268 CNS = tested on: SF-268 CNS
SF-295 CNS = tested on: SF-295 CNS
SF-539 CNS = tested on: SF-539 CNS
SK-MEL-28 melanoma = tested on: SK-MEL-28 melanoma
SK-OV-3 ovarian = tested on: SK-OV-3 ovarian
SN12C renal = tested on: SN12C renal
SNB-19 CNS = tested on: SNB-19 CNS
SNB-75 CNS = tested on: SNB-75 CNS
SR leukemia = tested on: SR leukemia
SW-620 colon = tested on: SW-620 colon
T-47D breast = tested on: T-47D breast
TK-10 renal = tested on: TK-10 renal
U251 CNS = tested on: U251 CNS
UACC-257 melanoma = tested on: UACC-257 melanoma
UO-31 renal = tested on: UO-31 renal

COc1ccc2[nH]c3c(C)c4ccnc(NCCCN(C)CCCNc5ccc6nnn7c8ccccc8c(=O)c5c67)c4c(C)c3c2c1
TGI (786-0 renal): 1690 nM | TGI (A498 renal): 2880 nM | TGI (A549 NSCLC): 1060 nM | GI50 (ACHN renal): 136 nM | TGI (ACHN renal): 1290 nM and 1550 nM | TGI (BT-549 breast): 3510 nM | TGI (CAKI-1 renal): 2270 nM | TGI (CCRF-CEM leukemia): 5510 nM | TGI (COLO 205 colon): 3530 nM | TGI (EKVX NSCLC): 2170 nM | TGI (HCC-2998 colon): 1440 nM | TGI (HCT-116 colon): 1140 nM | TGI (HCT-15 colon): 1570 nM | TGI (HL-60(TB) leukemia): 1210 nM | TGI (HOP-62 NSCLC): 2050 nM | TGI (HS 578T breast): 3910 nM | TGI (HT29 colon): 1360 nM | TGI (IGROV1 ovarian): 1800 nM | GI50 (KM12 colon): 818 nM | TGI (KM12 colon): 1800 nM and 2330 nM | TGI (LOX IMVI melanoma): 1620 nM | TGI (M14 melanoma): 2130 nM | TGI (MCF7 breast): 1250 nM | TGI (MDA-MB-231 breast): 3190 nM | TGI (MDA-MB-435): 1750 nM | TGI (MDA-N): 2090 nM | TGI (MOLT-4 leukemia): 132 nM | TGI (NCI-H23 lung): 2040 nM | TGI (NCI-H460 lung): 492 nM | TGI (NCI-H522 lung): 1670 nM | TGI (NCI/ADR-RES ovarian): 2690 nM | TGI (OVCAR-3 ovarian): 2400 nM | TGI (OVCAR-4 ovarian): 4720 nM | TGI (OVCAR-5 ovarian): 2730 nM | TGI (OVCAR-8 ovarian): 2130 nM | TGI (PC-3 prostate): 1910 nM | TGI (RPMI-8226 leukemia): 2190 nM | TGI (RXF 393 renal): 2570 nM | GI50 (SF-268 CNS): 209 nM | TGI (SF-268 CNS): 2510 nM and 3140 nM | TGI (SF-295 CNS): 1440 nM | TGI (SF-539 CNS): 1380 nM | GI50 (SK-MEL-28 melanoma): 3450 nM | GI50 (SK-OV-3 ovarian): 3290 nM | TGI (SK-OV-3 ovarian): > 100000 nM | GI50 (SN12C renal): 294 nM | TGI (SN12C renal): 1990 nM and 1670 nM | TGI (SNB-19 CNS): 2420 nM | GI50 (SNB-75 CNS): 1410 nM | TGI (SNB-75 CNS): 2170 nM and 2860 nM | TGI (SR leukemia): > 100000 nM | TGI (SW-620 colon): 1160 nM | TGI (T-47D breast): 6940 nM | TGI (TK-10 renal): 2380 nM | TGI (U251 CNS): 1670 nM | TGI (UACC-257 melanoma): 4750 nM | GI50 (UO-31 renal): 1290 nM | TGI (UO-31 renal): 2610 nM and 2760 nM
